Reference: patent US9446039B2, “Aminoheteroaryl compounds as MTH1 inhibitors” (CEMM—FORSCHUNGSZENTRUM FÜR MOLEKULARE MEDIZIN GMBH, priority 2012, dated 2016)

Columns and labels:
Type in all cases: binding
[1] = molecular target: T1, SW480 colon carcinoma cells lysate proteins (Homo sapiens, UniProt P06454); details: PreyGene PTMA
T1 sequence (P06454 1-111): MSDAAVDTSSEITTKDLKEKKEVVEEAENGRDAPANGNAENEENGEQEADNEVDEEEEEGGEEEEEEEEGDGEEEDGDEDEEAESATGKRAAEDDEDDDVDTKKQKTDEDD

[2] = molecular target: T2, SW480 colon carcinoma cells lysate proteins (Homo sapiens, UniProt P22314); details: PreyGene UBA1
T2 sequence (P22314 1-1058): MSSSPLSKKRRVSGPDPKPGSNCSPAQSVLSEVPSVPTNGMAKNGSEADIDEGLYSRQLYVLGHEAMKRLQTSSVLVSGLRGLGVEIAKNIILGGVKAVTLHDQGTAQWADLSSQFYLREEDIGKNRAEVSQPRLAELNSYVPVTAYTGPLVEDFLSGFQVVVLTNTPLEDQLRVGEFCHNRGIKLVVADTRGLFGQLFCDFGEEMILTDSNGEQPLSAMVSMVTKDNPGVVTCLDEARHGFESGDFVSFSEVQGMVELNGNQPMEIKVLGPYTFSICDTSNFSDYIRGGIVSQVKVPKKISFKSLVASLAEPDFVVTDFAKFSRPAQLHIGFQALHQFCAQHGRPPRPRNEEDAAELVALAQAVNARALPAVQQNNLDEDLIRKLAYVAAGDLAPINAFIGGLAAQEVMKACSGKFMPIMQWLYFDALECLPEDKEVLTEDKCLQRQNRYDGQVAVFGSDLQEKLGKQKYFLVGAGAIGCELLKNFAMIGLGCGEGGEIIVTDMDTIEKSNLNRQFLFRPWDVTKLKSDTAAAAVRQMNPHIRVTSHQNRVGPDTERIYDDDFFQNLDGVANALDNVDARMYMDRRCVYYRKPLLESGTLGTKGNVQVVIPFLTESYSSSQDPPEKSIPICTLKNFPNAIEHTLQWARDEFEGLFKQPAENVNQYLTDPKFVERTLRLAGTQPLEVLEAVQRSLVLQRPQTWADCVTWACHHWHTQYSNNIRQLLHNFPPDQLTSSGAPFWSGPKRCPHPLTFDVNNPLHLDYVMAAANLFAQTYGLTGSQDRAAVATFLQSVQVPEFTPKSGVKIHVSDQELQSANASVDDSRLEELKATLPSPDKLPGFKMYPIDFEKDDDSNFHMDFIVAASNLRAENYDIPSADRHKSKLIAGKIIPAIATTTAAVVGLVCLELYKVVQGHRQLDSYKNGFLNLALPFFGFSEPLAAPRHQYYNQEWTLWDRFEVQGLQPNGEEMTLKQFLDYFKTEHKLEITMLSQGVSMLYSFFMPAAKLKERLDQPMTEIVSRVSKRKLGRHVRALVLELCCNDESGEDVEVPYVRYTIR

[3] = molecular target: SW480 colon carcinoma cells lysate proteins (Homo sapiens, UniProt P27708); details: PreyGene CAD
SW480 colon carcinoma cells lysate proteins (Homo sapiens, UniProt P27708), sequence (P27708 whole entry): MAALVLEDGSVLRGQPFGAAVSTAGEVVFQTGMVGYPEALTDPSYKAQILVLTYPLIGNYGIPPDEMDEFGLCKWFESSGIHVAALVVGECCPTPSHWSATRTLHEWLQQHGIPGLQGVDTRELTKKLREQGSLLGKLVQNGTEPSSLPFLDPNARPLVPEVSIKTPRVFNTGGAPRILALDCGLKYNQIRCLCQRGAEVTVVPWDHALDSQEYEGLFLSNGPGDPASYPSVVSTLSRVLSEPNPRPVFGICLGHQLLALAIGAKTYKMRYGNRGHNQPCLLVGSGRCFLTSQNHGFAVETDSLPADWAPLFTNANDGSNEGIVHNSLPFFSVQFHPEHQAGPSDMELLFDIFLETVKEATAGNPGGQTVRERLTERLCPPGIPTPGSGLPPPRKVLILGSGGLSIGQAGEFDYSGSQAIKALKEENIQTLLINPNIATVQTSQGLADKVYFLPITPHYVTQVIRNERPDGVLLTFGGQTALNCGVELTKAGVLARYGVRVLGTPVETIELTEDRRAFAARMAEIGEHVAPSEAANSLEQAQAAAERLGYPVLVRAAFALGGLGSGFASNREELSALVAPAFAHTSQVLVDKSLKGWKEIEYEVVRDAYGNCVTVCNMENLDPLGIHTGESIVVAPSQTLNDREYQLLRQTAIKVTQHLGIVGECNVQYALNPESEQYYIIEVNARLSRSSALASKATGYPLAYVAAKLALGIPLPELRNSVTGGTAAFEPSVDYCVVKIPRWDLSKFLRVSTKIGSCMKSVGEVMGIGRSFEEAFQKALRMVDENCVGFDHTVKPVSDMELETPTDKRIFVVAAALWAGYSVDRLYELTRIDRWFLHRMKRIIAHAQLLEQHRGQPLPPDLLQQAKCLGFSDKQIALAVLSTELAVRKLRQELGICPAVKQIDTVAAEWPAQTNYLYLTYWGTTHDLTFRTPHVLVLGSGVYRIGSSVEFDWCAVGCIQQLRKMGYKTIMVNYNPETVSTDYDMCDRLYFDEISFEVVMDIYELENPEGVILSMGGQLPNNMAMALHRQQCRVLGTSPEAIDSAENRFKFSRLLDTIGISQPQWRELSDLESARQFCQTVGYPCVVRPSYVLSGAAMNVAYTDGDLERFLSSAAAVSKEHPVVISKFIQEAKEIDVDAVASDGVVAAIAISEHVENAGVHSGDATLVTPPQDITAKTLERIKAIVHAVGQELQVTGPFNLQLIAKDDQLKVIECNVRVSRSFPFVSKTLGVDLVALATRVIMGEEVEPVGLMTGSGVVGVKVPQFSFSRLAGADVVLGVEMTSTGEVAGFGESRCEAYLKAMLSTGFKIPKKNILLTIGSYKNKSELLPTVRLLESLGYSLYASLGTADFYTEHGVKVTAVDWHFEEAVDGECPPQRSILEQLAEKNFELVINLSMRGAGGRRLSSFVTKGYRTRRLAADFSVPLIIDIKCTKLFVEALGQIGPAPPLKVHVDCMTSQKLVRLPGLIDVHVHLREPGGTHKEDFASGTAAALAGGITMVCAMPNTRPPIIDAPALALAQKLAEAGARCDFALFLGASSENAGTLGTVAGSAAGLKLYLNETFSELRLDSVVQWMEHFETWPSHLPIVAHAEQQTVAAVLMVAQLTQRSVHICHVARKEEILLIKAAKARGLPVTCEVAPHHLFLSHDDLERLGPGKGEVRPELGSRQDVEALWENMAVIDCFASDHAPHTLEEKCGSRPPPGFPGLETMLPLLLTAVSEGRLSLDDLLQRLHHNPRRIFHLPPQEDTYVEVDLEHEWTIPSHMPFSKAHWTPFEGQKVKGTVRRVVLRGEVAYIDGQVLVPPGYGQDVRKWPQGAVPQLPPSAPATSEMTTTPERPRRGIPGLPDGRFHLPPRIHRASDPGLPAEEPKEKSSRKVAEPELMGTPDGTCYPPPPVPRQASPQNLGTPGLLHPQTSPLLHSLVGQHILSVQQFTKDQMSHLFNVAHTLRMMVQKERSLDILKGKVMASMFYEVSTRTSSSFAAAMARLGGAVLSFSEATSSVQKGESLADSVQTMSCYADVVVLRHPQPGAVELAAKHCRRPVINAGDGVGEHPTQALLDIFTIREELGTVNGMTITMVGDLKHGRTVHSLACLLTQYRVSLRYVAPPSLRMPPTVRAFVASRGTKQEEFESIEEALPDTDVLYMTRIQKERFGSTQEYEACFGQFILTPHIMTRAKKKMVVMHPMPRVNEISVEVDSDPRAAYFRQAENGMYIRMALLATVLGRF

[4] = molecular target: SW480 colon carcinoma cells lysate proteins (Homo sapiens, UniProt Q01105); details: PreyGene SET
SW480 colon carcinoma cells lysate proteins (Homo sapiens, UniProt Q01105), sequence (Q01105 whole entry): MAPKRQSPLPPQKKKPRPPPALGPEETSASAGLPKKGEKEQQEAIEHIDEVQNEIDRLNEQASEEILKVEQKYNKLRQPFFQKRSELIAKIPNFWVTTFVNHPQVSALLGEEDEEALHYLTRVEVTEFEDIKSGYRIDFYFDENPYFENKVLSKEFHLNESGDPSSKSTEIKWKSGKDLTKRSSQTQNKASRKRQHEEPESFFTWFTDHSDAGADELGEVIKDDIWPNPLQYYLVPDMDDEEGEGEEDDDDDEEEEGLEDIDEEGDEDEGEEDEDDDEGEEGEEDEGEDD

[5] = molecular target: T3, SW480 colon carcinoma cells lysate proteins (Homo sapiens, UniProt Q5XKE5); details: PreyGene KRT79; SW480 cells
T3 sequence (Q5XKE5 1-535): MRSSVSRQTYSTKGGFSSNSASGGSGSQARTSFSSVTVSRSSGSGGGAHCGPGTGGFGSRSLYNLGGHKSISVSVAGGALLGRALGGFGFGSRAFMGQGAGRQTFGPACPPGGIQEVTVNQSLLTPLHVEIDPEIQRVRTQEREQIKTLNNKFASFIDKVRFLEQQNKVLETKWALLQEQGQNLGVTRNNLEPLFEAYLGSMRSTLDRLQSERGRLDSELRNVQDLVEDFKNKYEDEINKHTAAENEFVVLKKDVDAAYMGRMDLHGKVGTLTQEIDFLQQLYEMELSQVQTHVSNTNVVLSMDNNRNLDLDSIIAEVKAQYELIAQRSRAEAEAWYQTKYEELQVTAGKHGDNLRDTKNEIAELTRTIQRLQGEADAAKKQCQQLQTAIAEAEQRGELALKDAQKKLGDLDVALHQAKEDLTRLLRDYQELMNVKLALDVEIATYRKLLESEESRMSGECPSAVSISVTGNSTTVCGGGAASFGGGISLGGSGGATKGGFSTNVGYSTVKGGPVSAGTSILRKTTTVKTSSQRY

## C[C@H](Oc1cc(-c2cnn(C3CCNCC3)c2)cnc1N)c1c(Cl)ccc(F)c1Cl [(5)-crizotinib]
[1]
  AvgP: 0.3707
  SC.Exp. 1-1: 2
  SC.Exp. 1-2: 2
  SC.Exp. 2-1: 0
  SC.Exp. 2-2: 0
  Sum (SC.Exp.): 4
[2]
  AvgP: 0.4997
  SC.Exp. 1-1: 15
  SC.Exp. 1-2: 15
  SC.Exp. 2-1: 0
  SC.Exp. 2-2: 0
  Sum (SC.Exp.): 30
[3]
  AvgP: 0.3483
  SC.Exp. 1-1: 2
  SC.Exp. 1-2: 3
  SC.Exp. 2-1: 0
  SC.Exp. 2-2: 0
  Sum (SC.Exp.): 5
[4]
  AvgP: 0.4696
  SC.Exp. 1-1: 3
  SC.Exp. 1-2: 3
  SC.Exp. 2-1: 4
  SC.Exp. 2-2: 3
  Sum (SC.Exp.): 13
[5]
  AvgP: 0
  SC.Exp. 1-1: 0
  SC.Exp. 1-2: 1
  SC.Exp. 2-1: 0
  SC.Exp. 2-2: 0
  SC.Exp. Sum: 1
